The nature of the series: gradient 5% acetonitrile 3 min, to 50% in 2 min, to 85% in 15 min, held 3 min, 100 µL/min. Particulars: column: Zorbax Extend-C18 2.1 x 50 mm; eluents: water / acetonitrile, 0.1% formic acid. The method in brief:
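A Zorbax Extend-C18 column (2.1 × 50 mm, 1.8 μm) run at 100 μL/min with water and acetonitrile, both containing 0.1% formic acid, separated mixtures of ~100 pure standards. The HPLC was coupled to a quadrupole time-of-flight mass spectrometer operated in positive and negative ionization mode, with dead and dwell volumes of 40 μL and 900 μL. Each retention time was taken from a computationally picked adduct peak that was then manually inspected.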
The molecule `CC1=C(C(=O)N2CCOCC2)C(c2cc(Br)ccc2F)C2=C(CC(C)(C)CC2=O)N1` (stereo not given) displayed an RP-LC retention time of 715 s.
The molecule `CCOc1ccccc1C1C(C#N)=C(N)Oc2cc(C)n(CCN(C)C)c(=O)c21` (stereo not given) had an RP-LC retention time of 597 s.
`Cc1ccc(NS(=O)(=O)c2cc3n(c2)CCCNC3=O)c(F)c1` showed an RP-LC retention time of 663 s.
Molecule `O=C(c1ccccc1F)N1CCN(c2nc(-c3ccc(Cl)cc3)no2)CC1` returned an RP-LC retention time of 1040 s.
Molecule `O=C(c1cnn(-c2ccc([N+](=O)[O-])cc2)c1C1CCNCC1)N1CCN(c2ccccn2)CC1` had an RP-LC retention time of 563 s.
In turn, `O=C(N[C@@H]1CN(c2ccncn2)C[C@H]1CO)c1ccc2ccccc2n1` displayed an RP-LC retention time of 604 s.
Molecule `O=C1C(N2CCCN(S(=O)(=O)c3cccc(Cl)c3)CC2)CCN1Cc1ccccc1` (stereo not given) came in with an RP-LC retention time of 718 s.
Consider `Cc1nc(-c2csc(S(=O)(=O)NCc3ccc(F)cc3Cl)c2)sc1C`, for which the RP-LC retention time is 1070 s.
The molecule `CCn1c(=O)c(N2CCC(NC(=O)NC3CCCCC3)CC2)nc2ccccc21` displayed an RP-LC retention time of 831 s.
The figure for `CC(C)CCNC(=O)N(C)Cc1nc2cc(C(=O)NC(C)C)ccc2n1C` is 626 s; for `COC(=O)c1cccc(-c2nc(-c3cn(Cc4ccccc4)nn3)no2)c1` it is 964 s.
`CC1=C(C(=O)N2CCOCC2)C(c2ccc(Cl)cc2)C2=C(CC(C)(C)CC2=O)N1` (stereo not given) came in with an RP-LC retention time of 710 s.
The result for `Cc1ccc(Cn2cc(-c3noc(-c4ccc5c(c4)OCO5)n3)nn2)cc1` reads 1020 s; that for `Cc1c(-c2cccc(NC(=O)c3cccc(Br)c3)c2)nc2ncccn12`, 696 s; that for `CCNC(=O)N1CC(C)Oc2ccccc21` (stereo not given), 762 s.
Consider `CCCCn1c(=O)c2ccccc2n(Cc2nc(-c3ccc(OC(C)C)cc3)no2)c1=O`, for which the RP-LC retention time came to 1290 s.
`O=C(Nc1nnc(SCc2nnc(-c3ccc4c(c3)OCO4)o2)s1)c1ccccc1` showed an RP-LC retention time of 857 s.
`CC(C)NC(=O)CC1CCN(C(=O)c2cc3cc(Cl)ccc3[nH]2)CC1` returned an RP-LC retention time of 773 s.
The result for `CC(C)C(=O)NCC12CCCC=C1NC(=O)CC2` (stereo not given) reads 624 s; that for `COC(=O)[C@H](Cc1ccc([N+](=O)[O-])cc1)NC(=O)c1cccc2ccccc12`, 909 s; that for `Cc1cc(C(=O)Nc2ccc(N3CCOCC3)cc2)nc2cc(-c3ccccn3)nn12`, 802 s.
Regarding `O=C(NCCNC(=O)Nc1cccc(Cl)c1)Nc1cccc(Cl)c1`, the RP-LC retention time is 782 s.
In turn, `Cc1cccc2nc(-c3ccc(Cl)cc3)c(Nc3ccc4c(c3)OCO4)n12` displayed an RP-LC retention time of 750 s.
Consider `CCOC(=O)c1ccccc1NC(=O)NCC(c1cccnc1)c1cn(C)c2ccccc12` (stereo not given), for which the RP-LC retention time worked out at 824 s.
The result for `CCOC(=O)c1cc(S(=O)(=O)N2CCCC2C(=O)N(CC)c2ccc(OC)cc2)cn1C` (stereo not given) reads 892 s; that for `CCC(=O)N1CCc2ccccc2C1C(=O)N1CCN(c2ccccc2)CC1` (stereo not given), 852 s; that for `Cc1ccnc(N2CCC(C(=O)NCCCN3CCCC3=O)CC2)n1`, 579 s.
The figure for `CCCN1C(=O)COc2ccc(-c3csc(NC(=O)C(C)C)n3)cc21` is 918 s; for `CCC(C)NC(=O)c1cnn(-c2ccc(-c3nc(C(C)(C)C)no3)cn2)c1C` (stereo not given) it is 1050 s; for `CN1C(=O)C2CCCCN2c2ccc(C(=O)NCCN3CCCCC3)cc21` (stereo not given) it is 609 s.
In turn, `Cc1nc2cc(-c3noc(-c4ccc5c(c4)OCO5)n3)ccc2o1` had an RP-LC retention time of 1050 s.
`CCC(C(=O)N1CCN(C(=O)c2ccco2)CC1)n1c2ccccc2c2cnn(C)c(=O)c21` (stereo not given) returned an RP-LC retention time of 801 s.
For the molecule `Cc1nc(-c2noc(-c3ccncc3)n2)cn1CC(=O)NCc1cccc(Cl)c1`, the RP-LC retention time was 693 s.
On to `Cc1cn(C)c(CC(=O)NCc2cccs2)c1C(=O)O`, for which the RP-LC retention time is 693 s.
With `COCc1nnc(NC(=O)c2ccccc2OCc2nc(-c3ccccc3)no2)s1`, the RP-LC retention time was found to be 1080 s.
Regarding `CCC(C)NC(=O)CC1CCN(C(=O)c2[nH]c(C)c(C(=O)OC)c2C)CC1` (stereo not given), the RP-LC retention time worked out at 663 s.
As for `Cc1ccc2[nH]cc(CCNC(=O)C3CCN(S(=O)(=O)c4ccc5c(ccn5C)c4)CC3)c2c1`, the RP-LC retention time is 933 s.
In turn, `O=S(=O)(c1ccc(Cl)s1)N1CC(c2nc(-c3ncccn3)no2)C1` registered an RP-LC retention time of 725 s.
As to `CCOC(=O)CNC(=O)NC(C(=O)N1CCc2ccccc21)C(C)C` (stereo not given), the RP-LC retention time was 783 s.
Turning to `Cc1ccc(NC(=O)N2CCc3c(c(-c4nc(C5CC5)no4)nn3C)C2)c(C)c1`, the RP-LC retention time is 834 s.
`CN(C)C(CNC(=O)C(=O)NCCC1=CCCCC1)c1ccsc1` (stereo not given) displayed an RP-LC retention time of 590 s.
The result for `O=C(CN1CCC(c2nnc(-c3ccc(F)cc3)o2)CC1)Nc1cccnc1` reads 539 s.
The molecule `COc1cccc(-c2nc(C3CCN(C(=O)c4n[nH]c5c4CCCC5)CC3)no2)c1` returned an RP-LC retention time of 847 s.
The figure for `CCn1c(C(=O)NCCCN2CCCC2=O)c(N2CCCC2=O)c2cc(F)ccc21` is 700 s.
Molecule `COC(=O)c1ccccc1NC(=O)Cn1cnc2nc(-c3ccc(OC)cc3)ncc2c1=O` yielded an RP-LC retention time of 925 s.
On to `CC(C)c1ccc2occ(CC(=O)N(Cc3ccc(N(C)C)cc3)C3CCS(=O)(=O)C3)c2c1` (stereo not given), for which the RP-LC retention time was 936 s.
The result for `Cc1[nH]c(C)c(S(=O)(=O)N2CCN(c3ccccn3)CC2)c1C(=O)N1CCCCC1` reads 606 s; that for `CCCn1cc(CCNS(=O)(=O)c2ccc3c(c2)CCCC3)c2cccnc21`, 1030 s.
The molecule `Cc1ccc(-c2noc(CCn3nc(-c4ccc(C)c(C)c4)ccc3=O)n2)cc1` yielded an RP-LC retention time of 1150 s.
In the case of `CCC(C(=O)NCc1ccco1)n1nc(C)c2c(C)n(-c3ccccc3)nc2c1=O` (stereo not given), the RP-LC retention time was determined as 831 s.
As for `CCOC(=O)c1c(C)nn(Cc2cccc(Cl)c2)c1N`, the RP-LC retention time was found to be 884 s.
The result for `CCOC(=O)CCC(=O)Nc1nnc(-c2sc(C)nc2C)o1` reads 621 s; that for `O=C(NCc1ccccc1)c1ccc(CN2CCN(Cc3ccc(F)cc3)C(=O)C2=O)cc1`, 774 s; that for `Cc1[nH]c(C(=O)N2CCC(CC(=O)NC3CCCC3)CC2)c(C)c1C(=O)OC(C)C`, 778 s.
`COc1ccc(C2CC(=O)N(CC(=O)N3CCOCC3)c3ccccc3S2)cc1OC` (stereo not given) displayed an RP-LC retention time of 736 s.
The figure for `COc1ccc(C(=O)NC2CCN(c3cc(-c4cccs4)[nH]n3)C2)cc1OC` (stereo not given) is 638 s; for `Cc1nnc(C2CCCCCN2S(=O)(=O)c2ccccc2F)o1` (stereo not given) it is 816 s; for `O=C(NC1CC1)[C@@H]1C[C@H](Oc2ccccc2)CN1C(=O)CC1CCCC1` it is 818 s.
In turn, `CC(=O)N1CCc2cc(N3CC(C(=O)Nc4ccccc4C(F)(F)F)CC3=O)ccc21` (stereo not given) had an RP-LC retention time of 710 s.
`CCOC(=O)C(=O)NCc1n[nH]c(=O)c2ccccc12` showed an RP-LC retention time of 579 s.
The figure for `CCC(=O)N1CCc2cc(N3CC(C(=O)Nc4ccc(C)cc4C)CC3=O)ccc21` (stereo not given) is 742 s; for `Cc1cccc(CN2CCCn3nc(C(=O)NCc4ccc5c(c4)OCO5)cc3C2=O)c1` it is 861 s; for `CC(C)c1nc(-c2ccc([N+](=O)[O-])cc2)cs1` it is 1120 s.
The figure for `CCc1cc2c(N3CCCC(C(=O)NCCCN4CCN(C)CC4)C3)ncnc2s1` (stereo not given) is 585 s.
`Cc1cc2c(cc1S(=O)(=O)N1CCCC1)N(C(=O)C1CC1)CC2` had an RP-LC retention time of 876 s.
`CCC1CN2C=Nc3oc(C)c(C(=O)Nc4cccc(Cl)c4)c3C2=N1` (stereo not given): the RP-LC retention time was 695 s.
The figure for `COc1cccc(CC(=O)Nc2nnc(SCc3nnc(-c4ccccc4C)o3)s2)c1` is 922 s; for `CCc1noc2nc(CCC(=O)NCCCN3CCCC(C)C3)nc(N3CCCCC3)c12` (stereo not given) it is 673 s; for `Cc1ccc(Nc2c(-c3cc(Br)ccc3F)nc3ccc(Cl)cn23)cc1` it is 1080 s.
The result for `CC(C)c1nnc(-c2ccc(S(=O)(=O)N3CCN(C(C)C)CC3)o2)o1` reads 608 s; that for `Cc1nc(NC(=O)c2ccc(F)cc2)nc2cc3c(cc12)OCO3`, 705 s; that for `COc1ccc(-c2nnc(SCc3cc(=O)n4ccsc4n3)o2)cc1OC`, 700 s.
`Cc1ccc(C(=O)Nc2nc(-c3ccc4c(c3)NC(=O)C(C)O4)c(C)s2)cc1` (stereo not given): the RP-LC retention time was 1010 s.
In turn, `CCOc1ccc(CNC(=O)Cc2nnc(-c3ccccn3)o2)cc1` showed an RP-LC retention time of 699 s.
As to `CCOC(=O)Nc1ccc2nc(-c3cscn3)[nH]c2c1`, the RP-LC retention time was determined as 651 s.
`CCc1noc(-c2ccc(-n3cnc(C(=O)NC(C)CC)c3)nc2)n1` (stereo not given) yielded an RP-LC retention time of 828 s.
In the case of `COc1cccc(-c2noc(N3CCCC3)n2)c1`, the RP-LC retention time worked out at 898 s.
`Cc1ccc(-c2ocnc2C(=O)NCCCN2CCc3ccccc3C2)s1` showed an RP-LC retention time of 727 s.
The result for `CC1(C)C(=O)N(CC(=O)N2CCc3ccccc3C2)c2ccccc21` reads 930 s.
On to `CCc1cc(=O)n(CC(=O)N2CCN(c3ccc(OC)cc3)CC2)c(N2CCOCC2)n1`, for which the RP-LC retention time came to 668 s.
